# Test results as given in patent US7291629B2, “Neurotrophin antagonist compositions” (Painceptor Pharma Corporation, priority 1996, dated 2007).
# Where two headings read alike, the source gives them in different places.
# What was measured:
# [1] = system: chick embryo dorsal root ganglia (DRG) neurons; test: Inhibition of neurite outgrowth (NGF-stimulated DRG neurons); format: cell-based; settings: 0.25 ng/mL NGF, NGF Control 1.000
# Procedure: Eight-day chick embryo dorsal root ganglia (DRG) were freed of meninges and removed aseptically. The DRG were kept at 4° C. at all times. Ganglia from six embryos (40-50 per embryo) were washed in Ca^2+-and Mg^2+-free Gey's balanced salt solution (Gibco) and exposed to 0.01% trypsin (Worthington) in the same solution for 10 min at 37° C. A half-volume of phosphate-buffered Gey's balanced salt solution was added for a further 5 min at 37° C. and the reaction was then terminated with one-third volume of Ham's F12 medium (Gibco) containing 5% fetal calf serum (FCS, Gibco). The ganglia were then triturated using a 5 mL narrow-tip pipette to a single cell suspension. Following filtration through […] nylon mesh (Small Parts Inc., Miami, Fla.) in a Millipore chamber to remove clumps, the cell suspension was washed through a 500-ml FCS undercut (700×g for 5 min at 4° C.) and resuspended in 4 mL of Ham's F12 medium plus 5% FCS. The cell suspension was then preplated on a 100-mm Flacon culture dish and incubated for 45-60 min at 37° C. in a 5% CO2 humidified atmosphere. Cells enriched in neurons were decanted for the bioassay, since non-neuronal cells of DRG preferentially stick to the culture substrate.
# The inside wells of 96-well Falcon microculture plates were coated with polylysine (0.1 mg/mL) (Sigma) for 4 h at 37° C. (the outside wells were filled with distilled water to provide humidity) and, following a rinse with tissue culture media, […] of neuron-rich cell suspension was added to each well at 10^5 cells/mL. Ninety (90) […] of NGF solution (prepared in tissue culture media) was then added to each well to a final concentration of 0.25 ng/mL NGF per well. […]
# The bioassays were read using a Leitz Diavert microscope with phase optics. […] At least 100 neurons per well were counted, and the assay was scored as the ratio of cells bearing neurites greater than one cell diameter to total viable (phase bright) cells.
# nerve-ligated rats = test: Nerve-ligated injury model of neuropathic pain, i.c.v. administration (tactile allodynia, thermal hyperalgesia, acute nociception); format: in vivo, rat; settings: given i.c.v.
# [2] = system: L5/L6 Nerve Ligated and Sham-Operated Rats; settings: for A50(95% C.L.) Tail Flick- Ligated: L5/L6 nerve ligated rats; for A50(95% C.L.) Tail Flick- Sham: sham-operated rats
# [3] = system: L5/L6 Nerve Ligated and Sham-Operated Rats; settings: for A50(95% C.L.) Hot Plate- Ligated: L5/L6 nerve ligated rats; for A50(95% C.L.) Hot Plate- Sham: sham-operated rats
# L5/L6 Nerve Ligated rats = test: Tactile allodynia, nerve ligation injury model (von Frey paw withdrawal threshold)
# p75 and trkA receptors = test: Binding of [125I]NGF to PC12 cells in the presence and absence of BDNF; settings: 100 uM compound, 0.5 nM 125I-NGF
# Procedure: The ability of the compounds of Formula I to antagonize NGF interaction with the p75 and trkA receptors was determined as follows.
# NGF was labelled using the Lactoperoxidase labelling method (Sutter et al., J. Biol. Chem., 1979) and the labelled NGF was separated from radiolabelling agents and free iodide using a PD-10 Sephadex G-25 column.
# PC12 cells were grown in RPMI with 10% heat inactivated donor horse serum and 5% fetal calf serum. Cells were harvested for binding by washing off the media with calcium-magnesium free balanced salt solution (Gey's solution) and incubated in 5 ml Gey's solution at 37° C. for 15 minutes. Cells were pelleted by centrifugation and suspended in Hepes-Krebs Ringer buffer (HKR) (10 mM Hepes pH7.35, containing 125 mM NaCl, 4.8 mM KCl, 1.3 mM CaCl2, 1.2 mM MgSO4, 1.2 mM KH2PO4, 1 mg/ml BSA and 1.0 mg/ml glucose) at a concentration of 4×10^6/ml and kept on ice. (C) NGF Binding The reaction was performed in a 96 well plate. Suspended cells (150 ul, […]) were added to ^125I-NGF (final concentration of 0.5 nM) and the competing compound of Formual I in a final volume of 300 ul of HKR buffer. The plates were incubated with shaking for 2 hr at 4° C. At the end of the incubation, 100 ul aliquots of the reaction sample were added to 400 ul microcentrifuge tubes containing 200 ul of 10% glycerol in HKR buffer. The tubes were centrifuged for 1 minute at ˜5000 rpm and the tip containing the cell pellet was cut off. Radioactivity bound to the cells was determined by measuring the ^125I-NGF associated with each pellet in a gamma counter. Specific binding is calculated as the difference between the amount of ^125I-NGF bound in the absence (total) and presence (NSB) of 50 nM unlabeled NGF. TrkA binding is determined similarly except 10 nM BDNF is added to all reactions. Table 1 summarizes the values obtained from this experiment for the inhibition of binding of NGF to P75 and TrkA by compounds of Formula I.
compound,measurement,setting,value
O=C1c2cccc3cc([N+](=O)[O-])cc(c23)C(=O)N1CCO [Compound A],Ratio (cells bearing neurites greater than one cell diameter to total viable cells),[1]; 5 μM compound,1.1
same,Ratio (cells bearing neurites greater than one cell diameter to total viable cells),[1]; 50 μM compound,0.16
same,Ratio (cells bearing neurites greater than one cell diameter to total viable cells),[1]; 100 μM compound,0.016
same,Activity in nerve-ligated injury model of neuropathic pain,nerve-ligated rats,not active
same,A50(95% C.L.) Tail Flick- Ligated,[2]; i.p.,27.8 mg/kg
same,A50(95% C.L.) Tail Flick- Sham,[2]; i.p.,25.7 mg/kg
same,A50(95% C.L.) Tail Flick- Ligated,[2]; i.th,78 µg
same,A50(95% C.L.) Tail Flick- Sham,[2]; i.th,34 µg
same,A50(95% C.L.) Hot Plate- Ligated,[3]; i.p.,18.6 mg/kg
same,A50(95% C.L.) Hot Plate- Sham,[3]; i.p.,34.9 mg/kg
same,A50(95% C.L.) Hot Plate- Ligated,[3]; i.th,14.8 µg
same,A50(95% C.L.) Hot Plate- Sham,[3]; i.th,48.1 µg
same,A50(95% C.L.) Allodynia- Ligated,L5/L6 Nerve Ligated rats; i.p.,38 mg/kg
same,A50(95% C.L.) Allodynia- Ligated,L5/L6 Nerve Ligated rats; i.th,34.6 µg
"CN1CC[C@]23c4c5ccc(O)c4O[C@H]2[C@@H](O)C=C[C@H]3[C@H]1C5 [Morphine, morphine, reference compound]",A50(95% C.L.) Tail Flick- Ligated,[2]; i.th,2.3 µg
same,A50(95% C.L.) Tail Flick- Sham,[2]; i.th,1.45 µg
same,A50(95% C.L.) Allodynia- Ligated,L5/L6 Nerve Ligated rats; i.p.,7.1 mg/kg
same,A50(95% C.L.) Allodynia- Ligated,L5/L6 Nerve Ligated rats; i.th,>100 µg
"O=C1c2cccc3cccc(c23)C(=O)N1CCO [N-(1,3-Dioxo-1,2,3,4-tetrahydrobenzo[i]isoquinoline)aminoethanol]",% Inhibition at 100 uM,p75 and trkA receptors,27%
"O=C1c2cccc3cc([N+](=O)[O-])cc(c23)C(=O)N1CCO [N-(1,3-Dioxo-5-nitro-1,2,3,4-tetrahydrobenzo[i]isoquinoline)-aminoethanol]",% Inhibition at 100 uM,p75 and trkA receptors,44%
"O=C(O)CN1C(=O)c2cccc3cc([N+](=O)[O-])cc(c23)C1=O [N-(1,3-Dioxo-5-nitro-1,2,3,4-tetrahydrobenzo[i]isoquinoline)acetic acid]",% Inhibition at 100 uM,p75 and trkA receptors,58%
"O=C1c2cccc3c(Sc4ccccc4)ccc(c23)C(=O)N1CCO [N-(1,3-Dioxo-6-phenylmercapto-1,2,3,4-tetrahydrobenzo[i]isoquinoline)aminoethanol]",% Inhibition at 100 uM,p75 and trkA receptors,3%
"Cc1cc(C)cc(N2C(=O)c3cccc4cccc(c34)C2=O)c1 [N-(3,5-Dimethylphenyl)-1,8-naphthalimide]",% Inhibition at 100 uM,p75 and trkA receptors,9%
CCOc1ccc(N2C(=O)c3cccc4cc([N+](=O)[O-])cc(c34)C2=O)cc1 [N-(4-Ethoxyphenyl)-5-nitronaphthalimide],% Inhibition at 100 uM,p75 and trkA receptors,18%
"O=C1c2cccc3cccc(c23)C(=O)N1CCc1ccccn1 [N-(Pyrid-2-ylethyl)-1,8-naphthalimide]",% Inhibition at 100 uM,p75 and trkA receptors,35%
O=C1c2cccc3cccc(c23)C(=O)N1Cc1ccccn1 [N-(Pyrid-2-ylmethyl)naphthalimide],% Inhibition at 100 uM,p75 and trkA receptors,10%
"O=C1c2cccc3cccc(c23)C(=O)N1Nc1ccccc1 [N-Anilino-1,8-naphthalimide]",% Inhibition at 100 uM,p75 and trkA receptors,1%
"O=C1c2cccc3cccc(c23)C(=O)N1Cc1ccco1 [N-Furfuryl-1,8-naphthalimide]",% Inhibition at 100 uM,p75 and trkA receptors,36%
CN1C(=O)c2cccc3cccc(c23)C1=O [N-Methylnaphthalimide],% Inhibition at 100 uM,p75 and trkA receptors,11%
CCCCCCCCN1C(=O)c2cccc3cc([N+](=O)[O-])cc(c23)C1=O [N-Octyl-5-nitronaphthalimide],% Inhibition at 100 uM,p75 and trkA receptors,29%
NN1C(=O)c2cccc3cccc(c23)C1=O [Naphthalicacid-N-aminoimide],% Inhibition at 100 uM,p75 and trkA receptors,27%
"Naphthalicacid-N,N′-diimide",% Inhibition at 100 uM,p75 and trkA receptors,13%
